# Legend:
# L1210 mouse leukemia = experiment: In vivo antitumor activity against L1210 mouse leukemia (L1210-BDF1 mouse model); design: species or system BDF1 mice; details: for Optimal dose: L1210 ip/ip, single dose
# Method: BDF1 mice were purchased from Charles River (Wilmington, MA). Groups of 6-8 mice weighing 18-22 gm were inoculated ip with 1×10^6 L1210 leukemia cells on day 0. L1210 cells were kept in DBA2 mice were weekly passages between the different experiments. All L-PT preparations were injected ip in volumes of 0.1 to 0.3 ml 24 hours after tumor inoculation. Two different schedules of administration were used: a single injection on day 1 or an injection on days 1, 5 and 9 (multiple). […] Clinical behavior and survival times were monitored until all animals had died. Results were expressed as % T/C (median survival time of treated mice/median survival time of control mice ×100) and number of long-term survivors. Mice living more than 30 days and more than 60 days were considered to be long-term survivors for the single and multiple injection schedule respectively. All L-PT preparations tested for antitumor activity were prepared under sterile conditions on the same day of the experiment.
# The antitumor activity against L-1210 murine leukemia of the different L-PT analogs was assessed in an L-1210-BDF, mouse model (tumor inoculation day 0, treatment day 1, ip) as described earlier herein.
# These liposome-encapsulated compounds were tested to determine their optimal dose and effectiveness as inhibitors of in vivo tumor growth as described in Example 12.
# [1] = Stability of L-PT in 0.9% saline at 4° C. for 14 days; format: physicochemical; details: for Stability % (PT remaining in the liposomes): 0.9% saline, 4° C., DMPC:DMPG 7:3; for stability compared with Pt cyclopentenecarboxylato-racemic-DACH, in words: saline
# Method: The stability of the different liposome-PT (L-PT) preparations in 0.9% NaCl solution at 4° C., and 50% human (AB) serum in 0.9% NaCl solution at 37° C. was determined using the following formula: [formula]
# The EE values used in the stability determinations were obtained by measuring PT in the supernatants by UV spectrophotometry (0.9% NaCl solution) or x-ray fluorescence (50% human AB serum). The stability in 0.9% NaCl solution was determined up to 14 days after the initial preparation. In addition, the L-PT preparations were observed microscopically on day 14 to check the morphology of the vesicles. The stability in 50% human AB serum was determined up to 18 hours after incubation.
# Preparations were suspended in 0.9% saline and incubated at 4° C. for 14 days. The liposome compositions were observed by light microscopy and the amount of free PT in the saline determined. […] Free PT was determined and stability was calculated as the percentage PT remaining in the liposomes.
# [2] = Encapsulation efficiency of platinum complexes in multilamellar liposomes (UV spectrophotometry / x-ray fluorescence); format: physicochemical; details: for Encapsulation Efficiency: lipophilic cisplatin analogues incorporated in liposomes (Table 12); for % Encapsulation Efficiency: liposomes DMPC:DMPG 7:3, mean of at least three experiments
# Method: Multilamellar lipid vesicles (MLV) or liposomes containing incorporated platinum complexes (PT) of the above descriptions were prepared as previously described for other compounds (Lopez-Berestein et al (4)(1984) Clin. Exp. Metastasis V 2 pp 127-137 and Lopez-Berestein et al (1983) J Inf Dis V 147 pp 937-945). In brief, chloroform solutions of lipids (at the desired molar ratio) and PT were mixed at a lipid-PT ratio of 15:1 and the chloroform was evaporated in a rotary evaporator (Buchi, Brinkmann Instruments, Westbury, NY). The dried lipid film obtained, containing PT, was then dispersed with an aqueous solution (0.9% NaCl in water) by vigorous handshaking. The suspension was subsequently centrifuged at 30,000 ×g for 45 minutes, the supernatant was discarded, and the pellet containing PT was resuspended in 0.9% NaCl solution.
# Elemental platinum (Pt) was determined in the liposome suspension and the pellet by x-ray fluorescence as previously reported (Seifert et al (1979) Proc. Amer. Ass'n. Cancer Res. V 20 p. 168) in the Department of Analytical Chemistry, The University of Texas Medical School at Houston, TX. The amount of platinum complex (PT) was determined in the supernatant by ultraviolet (UV) spectrophotometry using a wavelength of 224 nm. The EE was initially calculated with the two following formulas:
# 1. EE =Pt in pellet/total Pt in the initial liposome suspension
# 2. EE =Total Pt initially added - Pt in supernatant/total Pt initially added
# The encapsulation efficiency for Pt-cyclopentenecarboxylato racemic-DACH was 66%. […] The encapsulation efficiency for Pt-neodecanoato-racemic-DACH, Pt-neodecanoatotrans-RR-DACH, Pt-n-decyliminodiacetato racemic DACH complexes are presented in Table I, shown below.
# The compounds prepared in Examples 14-19 were tested for their efficiency of encapulation in liposomes by the methods described in Example 6. These liposome-encapsulated compounds were tested to determine their optimal dose and effectiveness as inhibitors of in vivo tumor growth as described in Example 12. The data in Table 12 reveal the resultant measurements.
# [3] = Solubility in organic solvents and water; format: physicochemical; details: for solubility in methanol and chloroform, in words: chloroform (and other organic solvents where stated)
# [4] = Nephrotoxicity: blood urea nitrogen (BUN) 96 hours after ip LD50 dose; format: in vivo, CD1 Swiss mice; details: for BUN at 96 hours: ip single injection at LD50 dose
# Method: All L-PT preparations tested for toxicity were prepared under sterile conditions on the same day of the experiments.
# L1210 cells = experiment: In vitro growth inhibition of L1210 leukemic cells (96 hours, Coulter Counter); format: cell-based, murine; details: Exp. 1; 5760 min
# Method: Four ml of cell suspension were added to culture tubes and the appropriate concentration of free PT or L-PT was added (from 0.01 micro g/ml to 10 micro g/ml final concentration). After 96 hours, the cell concentration of control and experimental cultures were calculated with a Coulter Counter (Coulter Electronics, Hialeah, FLA) and the percent inhibition calculated. The following preparations were tested: free PT, DMPG, DMPC:DMPG 7:3, DMPG-PT and DMPC:DMPG 7:3-PT.
# [5] = Acute toxicity (LD10, LD50, LD90) in CD-1 Swiss mice; format: in vivo
# Method: Toxicology studies were carried out in 6-8 weeks old CD-1 Swiss mice weighing 22-25 gm and purchased from The University of Texas Science Park (Bastrop, TX). Free PT in suspension in hydroxypropylcellulose, DMPG, DMPG-PT, DMPC:DMPG 7:3 and DMPC:DMPG 7:3-PT were administered intraperitoneally (ip) in volumes ranging between 0.1 and 0.3 ml. DMPC:DMPG 7:3-PT was also administered intravenously (iv) in one single injection or in 3 daily injections. The clinical behavior and the survival times were monitored on a daily basis.
# [6] = L1210 ip/ip single dose at the optimal dose, incorporated in liposomes (Table 12)
# [7] = incorporated in liposomes (Table 12)
# [8] = 25 mg/kg ip day 1, liposomes DMPC:DMPG 7:3 (Table 8)
Compound,% T/C (L1210 mouse leukemia; [6]),Optimal dose (L1210 mouse leukemia; [7]),% T/C (L1210 mouse leukemia; [8]),Stability % (PT remaining in the liposomes) [1],Encapsulation Efficiency [2],"solubility in methanol and chloroform, in words [3]","solubility in water, in words [3]",also measured
cis-bis-neodecanoato-ethylenediamine-platinum(II),144%,75 mg/kg,,,,,,
"CCCCCCCCCCN1CC(=O)[O][Pt]2([NH]C3CCCCC3[NH]2)[O]C(=O)C1 (mixture of isomers) [Pt-N-decyliminodiaceto-racemic-DACH mixture, cis-bis-n-decyliminodiaceto-DACH-platinum (II)]",,,150%,100%,,,,
cis-bis-neodecanoato-bis-isopropylamine-platinum (II),150%,100 mg/kg,,,87%,highly soluble,insoluble,
"CCCCCCCCCCN1CC(=O)[O][Pt]2([NH][C@@H]3CCCC[C@H]3[NH]2)[O]C(=O)C1 [Pt-N-decyliminodiacetato-trans-RR-DACH, cis-bis-n-decyliminodiacetato-trans-RR-DACH-Pt (II)]",,,162%,100%,,,,
cis-bis-neodecanoato-bis-cyclohexylamine-platinum (II),125%,100 mg/kg,,,89%,highly soluble,insoluble,
"Cis-bis-neodecanoato-trans-R,R-1,2-diaminocyclohexane-platinum",170%,25 mg/kg,,,93%,,,
cis-bis-neodecanoatoDACH-platinum II [Pt-neodecanoato-racemic DACH-mixture],,,,100%,,highly soluble,insoluble,"% T/C (L1210 mouse leukemia; 50 mg/kg ip day 1, liposomes DMPC:DMPG 7:3 (Table 8)): 187%; % Encapsulation Efficiency [2]: 99%; stability compared with Pt cyclopentenecarboxylato-racemic-DACH, in words [1]: greater stability"
"CCCCCCCCCC(=O)[O][Pt]1([O]C(=O)CCCCCCCCC)[NH][C@@H]2CCCC[C@H]2[NH]1 [cis-bis-decanoato-trans-R,R-1,2-diaminocyclohexane-platinum II]",187%,50 mg/kg,,,,,,
cis-bis-neodecanoato-bis-diamine-platinum (II),200%,50 mg/kg,,,95%,highly soluble,insoluble,
cis-bis-neodecanoato-RR-DACH-Platinum (II) [Pt-neodecanoato-trans-RR-DACH],,,175%,99%,,,,% Encapsulation Efficiency [2]: 99%
"O=C([O][Pt]1([O]C(=O)C2=CCCC2)[NH][C@@H]2CCCC[C@H]2[NH]1)C1=CCCC1 [Pt-cyclopentenecarboxylato trans-RR-DACH, cis-bis-cyclopentenecarboxylato-1,2-trans-RR-DACH-Pt (II)-3H2 O]",,,187%,94%,,,,"stability compared with Pt cyclopentenecarboxylato-racemic-DACH, in words [1]: greater stability"
"O=C([O][Pt]1([O]C(=O)C2=CCCC2)[NH]C2CCCCC2[NH]1)C1=CCCC1 (mixture of isomers) [Pt-cyclopentenecarboxylato racemic-DACH mixture, cis-bis-cyclopentenecarboxylato-1,2-DACH-platinum (II)]",,,213%,89%,,,,"% T/C (L1210 mouse leukemia; 6.25 mg/kg × 3 ip, days 1, 5 and 9): 168%; % T/C, mean (L1210 mouse leukemia; 12.5 mg/kg and 25 mg/kg, single ip dose, means of three experiments): 162%; % T/C (L1210 mouse leukemia; 12.5 mg/kg ip day 1, Exp. 1): 173%; % T/C (L1210 mouse leukemia; 12.5 mg/kg ip day 1, Exp. 2): 136%; % T/C (L1210 mouse leukemia; 12.5 mg/kg ip day 1, Exp. 3): 179%; % T/C (L1210 mouse leukemia; 12.5 mg/kg × 3 ip, days 1, 5 and 9): 284%; % T/C (L1210 mouse leukemia; 25 mg/kg ip day 1, Exp. 3): 168%; % T/C (L1210 mouse leukemia; 25 mg/kg × 3 ip, days 1, 5 and 9): 158%; BUN at 96 hours ([4]; listed as Free PT): 34.4 ± 9.6 mg %; BUN at 96 hours ([4]; listed as PT in suspension in hydroxypropylcellulose): 34.4±9.6 mg %; BUN elevation, in words ([4]; ip, LD50 dose, 96 hours): no significant BUN elevations; ID50 (L1210 cells): 1.3 micro g/ml; LD50 Dose ([5]; ip single injection (Table 4, CD1 mice), 20160 min): 91 mg/kg; LD10 ([5]; ip × 1): 61 mg/kg; LD90 ([5]; ip × 1): 125 mg/kg; LD50 ([5]; ip × 1, 20160 min): 91 mg/kg"
O=C([O][Pt]1([O]C(=O)C2=CCCC2)[NH][C@H]2CCCC[C@@H]2[NH]1)C1=CCCC1 [Pt-cyclopentenecarboxylato trans-SS-DACH],,,155%,,,,,

# — US5041581A (priority 1986, dated 1991)
